The assay concerns the target T1, IKKβ (Homo sapiens, UniProt O14920).
T1 construct: gene IKBKB; human recombinant IKKβ
T1 sequence (O14920 1-756): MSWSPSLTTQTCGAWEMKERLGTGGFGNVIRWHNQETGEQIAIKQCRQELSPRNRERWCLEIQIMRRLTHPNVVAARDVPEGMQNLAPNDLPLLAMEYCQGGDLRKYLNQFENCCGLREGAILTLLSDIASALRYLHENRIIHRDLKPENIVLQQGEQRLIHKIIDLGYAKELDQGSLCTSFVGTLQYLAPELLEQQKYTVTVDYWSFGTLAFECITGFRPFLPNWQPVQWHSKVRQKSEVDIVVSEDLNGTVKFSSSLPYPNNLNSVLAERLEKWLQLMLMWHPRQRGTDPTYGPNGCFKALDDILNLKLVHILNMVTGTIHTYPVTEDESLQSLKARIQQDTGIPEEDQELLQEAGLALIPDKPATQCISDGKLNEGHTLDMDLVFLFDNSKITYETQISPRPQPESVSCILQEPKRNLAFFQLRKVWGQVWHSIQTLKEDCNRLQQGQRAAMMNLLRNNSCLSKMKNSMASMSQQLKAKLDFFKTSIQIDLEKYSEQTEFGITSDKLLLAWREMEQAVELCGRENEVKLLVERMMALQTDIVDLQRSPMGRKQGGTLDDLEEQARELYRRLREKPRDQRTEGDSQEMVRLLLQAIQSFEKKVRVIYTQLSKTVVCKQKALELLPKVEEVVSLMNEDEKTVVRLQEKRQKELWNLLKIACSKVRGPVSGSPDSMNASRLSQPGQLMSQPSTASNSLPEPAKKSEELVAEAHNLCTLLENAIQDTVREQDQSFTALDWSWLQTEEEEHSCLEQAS
In words: ELISA-based K-LISA IKKβ kinase assay with GST-IκBα substrate. The format is biochemical. A general note: In an ELISA, binding on a coated surface is turned into a signal by an enzyme label.

Each structure is given as a SMILES string.

As to `O=C(O)c1ccccc1C(=O)NCCC(c1ccccc1)c1ccco1` (stereo not shown) [compound 1, benzoic acid derivative (1)], the IC50 was ~50 µM.

Broadly, the IC50 is the concentration needed to halve the response being measured. Higher therefore signals a need for much substance.

The values are drawn from PMC3583241, “Hit identification of IKKβ natural product inhibitor” (BMC Pharmacology & Toxicology, 2013).
